Active and inactive are the calls of the source.
Columns and labels:
[1] = biological target: T1, Microphthalmia-associated transcription factor (Homo sapiens, UniProt O75030); assay: reducers of TRPM1 reporter luminescence, concentration series – cell-based, SK-MEL-5, cherry-picked, set 4, MITF inhibitor project, dose response (AID 493102); type: functional
T1 sequence (O75030 whole entry): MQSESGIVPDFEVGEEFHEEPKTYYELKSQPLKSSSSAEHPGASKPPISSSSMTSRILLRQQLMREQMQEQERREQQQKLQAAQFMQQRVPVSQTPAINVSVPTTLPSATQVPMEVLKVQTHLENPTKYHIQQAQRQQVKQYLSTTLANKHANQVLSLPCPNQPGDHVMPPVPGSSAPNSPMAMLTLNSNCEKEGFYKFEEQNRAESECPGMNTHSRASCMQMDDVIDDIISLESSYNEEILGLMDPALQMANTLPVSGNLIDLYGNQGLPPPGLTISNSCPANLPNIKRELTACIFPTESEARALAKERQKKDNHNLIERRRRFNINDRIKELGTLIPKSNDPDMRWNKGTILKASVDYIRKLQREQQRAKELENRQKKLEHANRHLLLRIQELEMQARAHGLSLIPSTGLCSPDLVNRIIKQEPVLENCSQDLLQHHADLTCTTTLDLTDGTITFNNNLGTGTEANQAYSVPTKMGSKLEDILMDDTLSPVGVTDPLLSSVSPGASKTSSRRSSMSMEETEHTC

[2] = biological target: T2, E3 ubiquitin-protein ligase XIAP (Homo sapiens, UniProt P98170); assay: Counter Screen using XIAP-Bir3 for Chemical Antagonists of Bir1/2 domains of IAP-family anti-apoptotic proteins. [Related pubchem assays (depositor defined):AID1018, AID1449, AID1514, AID1638, AID1749, AID1750, AID488957, AID488963]
[3] = biological target: T1, Microphthalmia-associated transcription factor; assay: MITF Measured in Cell-Based System Using Plate Reader - 2084-01_Inhibitor_DoseNoFile_CherryPick_Activity_Set2. [Related pubchem assays (depositor defined):AID488944]; type: functional
[4] = biological target: T1, Microphthalmia-associated transcription factor; assay: reducers of TRPM1 reporter luminescence, concentration series – cell-based, SK-MEL-5, cherry-picked, set 3, MITF inhibitor project, dose response (AID 493073); type: functional;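 further: SK-MEL-5 melanoma cells with luciferase driven by the MITF target TRPM1 promoter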
[5] = biological target: T2, E3 ubiquitin-protein ligase XIAP; assay: small molecules displacing peptide from XIAP – biochemical, IAP family, fluorescence polarization (AID 1018); type: functional
Procathepsin L = Procathepsin L (Homo sapiens, UniProt P07711); assay: CTSL1 protease inhibition – biochemical, QFRET, 1536-well, counter-screen for M1/M17 aminopeptidase inhibitor project, dose response (AID 2214)
Phosphomannomutase 2 = Phosphomannomutase 2 (Homo sapiens, UniProt O15305); assay: Counter screen SAR assay for PMM2 inhibitors via a fluorescence intensity assay. [Related pubchem assays (depositor defined):AID1545, AID1574]
[6] = biological target: Peroxisome proliferator-activated receptor gamma/Nuclear receptor coactivator 2 (Homo sapiens, UniProt P37231); assay: TR-FRET dose response biochemical High Throughput Screening assay for agonists of the steroid receptor coactivator 2 (SRC-2) recruitment by the peroxisome proliferator-activated receptor gamma (PPAR gamma): non-selective agonists. [Related pubchem assays: 1297, 1032 ]; type: functional
[7] = biological target: Peroxisome proliferator-activated receptor gamma/Nuclear receptor coactivator 3 (Homo sapiens, UniProt P37231); assay: TR-FRET dose response biochemical High Throughput Screening assay for agonists of the steroid receptor coactivator 3 (SRC-3) recruitment by the peroxisome proliferator-activated receptor gamma (PPAR gamma): non-selective agonists. [Related pubchem assays: 1301 (Confirmation screen.), 1048 (Primary screen.)]; type: functional
[8] = biological target: FAD-linked sulfhydryl oxidase ALR (Homo sapiens, UniProt P55789); assay: ALR-catalysed DTT oxidation blockers – biochemical, H2O2 detection, luminescence, cherry-pick, dose response (AID 493248)
Leucine aminopeptidase = biological target: T3, Leucine aminopeptidase (Plasmodium falciparum 3D7, UniProt Q8IL11); assay: P. falciparum M17LAP inhibitors, primary screen, biochemical, fluorogenic H-Leu-NHMec substrate, 1536-well (AID 1619); type: functional
T3 sequence (Q8IL11 whole entry): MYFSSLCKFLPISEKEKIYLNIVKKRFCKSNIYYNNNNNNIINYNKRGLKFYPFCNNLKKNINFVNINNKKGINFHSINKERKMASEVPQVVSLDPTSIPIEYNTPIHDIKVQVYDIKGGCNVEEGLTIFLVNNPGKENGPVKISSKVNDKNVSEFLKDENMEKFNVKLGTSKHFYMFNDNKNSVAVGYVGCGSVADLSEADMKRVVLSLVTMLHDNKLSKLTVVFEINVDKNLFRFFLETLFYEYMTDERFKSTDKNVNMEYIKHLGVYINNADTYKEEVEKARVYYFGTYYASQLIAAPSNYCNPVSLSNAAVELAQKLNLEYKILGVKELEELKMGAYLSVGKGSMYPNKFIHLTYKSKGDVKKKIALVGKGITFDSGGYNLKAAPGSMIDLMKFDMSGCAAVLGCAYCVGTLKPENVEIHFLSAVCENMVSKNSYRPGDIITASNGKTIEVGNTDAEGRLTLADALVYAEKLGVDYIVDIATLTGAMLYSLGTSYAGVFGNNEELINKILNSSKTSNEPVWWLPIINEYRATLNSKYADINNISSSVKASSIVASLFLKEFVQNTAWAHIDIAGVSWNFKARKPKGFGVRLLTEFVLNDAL

Aspartyl aminopeptidase = Aspartyl aminopeptidase (Plasmodium falciparum 3D7, UniProt Q8I2J3); assay: Counterscreen for inhibitors of M1 and M17 aminopeptidases: QFRET-based biochemical high throughput dose response assay for inhibitors of the Plasmodium falciparum M18 Aspartyl Aminopeptidase (PFM18AAP). [Related PubChem assays: 1619 (Screening assay (M17LAP inhibitors).), 1445 (Screening assay (M1AAP inhibitors).)]
[9] = biological target: Peroxisome proliferator-activated receptor gamma/Nuclear receptor coactivator 1 (Homo sapiens, UniProt P37231); assay: TR-FRET dose response biochemical High Throughput Screening assay for agonists of the steroid receptor coactivator 1 (SRC-1) recruitment by the peroxisome proliferator-activated receptor gamma (PPAR gamma): non-selective agonists. [Related pubchem assays (depositor defined):AID1300, AID1808, AID504735, AID631]; type: protein assay
[10] = biological target: T4, Mannose-6-phosphate isomerase (Homo sapiens, UniProt P34949); assay: phosphomannose isomerase inhibition – biochemical, fluorescence intensity, confirmation (AID 1535)
T4 sequence (P34949 whole entry): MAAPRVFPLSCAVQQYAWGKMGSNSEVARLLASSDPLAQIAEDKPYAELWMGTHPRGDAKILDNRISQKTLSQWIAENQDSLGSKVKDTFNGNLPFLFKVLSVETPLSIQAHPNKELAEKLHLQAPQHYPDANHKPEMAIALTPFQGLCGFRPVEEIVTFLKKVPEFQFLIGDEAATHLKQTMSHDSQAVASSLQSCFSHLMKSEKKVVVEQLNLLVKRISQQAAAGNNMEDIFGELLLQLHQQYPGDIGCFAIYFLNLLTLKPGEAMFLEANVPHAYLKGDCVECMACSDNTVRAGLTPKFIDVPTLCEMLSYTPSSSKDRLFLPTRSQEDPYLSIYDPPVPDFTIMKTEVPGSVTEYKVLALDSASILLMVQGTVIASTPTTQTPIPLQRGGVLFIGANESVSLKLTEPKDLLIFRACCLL

[11] = biological target: T5, Alkaline phosphatase, tissue-nonspecific isozyme (Homo sapiens, UniProt P05186); assay: potency against alkaline phosphatase TNAP – biochemical, luminescent, dose response, SAR follow-up (AID 1056)
T5 sequence (P05186 whole entry): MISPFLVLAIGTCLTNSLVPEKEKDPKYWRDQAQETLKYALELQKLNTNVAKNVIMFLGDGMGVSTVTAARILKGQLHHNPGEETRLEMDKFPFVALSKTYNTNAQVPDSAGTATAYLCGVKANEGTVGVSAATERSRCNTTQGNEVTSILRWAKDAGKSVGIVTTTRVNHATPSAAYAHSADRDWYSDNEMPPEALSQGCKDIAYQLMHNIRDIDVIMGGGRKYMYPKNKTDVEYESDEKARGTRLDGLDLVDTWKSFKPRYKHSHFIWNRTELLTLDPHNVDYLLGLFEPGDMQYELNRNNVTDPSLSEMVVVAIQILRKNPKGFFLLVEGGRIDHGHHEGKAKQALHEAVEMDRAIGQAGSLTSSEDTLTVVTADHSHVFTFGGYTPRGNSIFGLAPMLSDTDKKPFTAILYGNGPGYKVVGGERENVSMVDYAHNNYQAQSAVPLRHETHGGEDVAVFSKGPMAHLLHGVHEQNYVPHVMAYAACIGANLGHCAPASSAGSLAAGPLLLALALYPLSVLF

[12] = biological target: Alkaline phosphatase, placental type (Homo sapiens, UniProt P05187); assay: human placental alkaline phosphatase inhibition – biochemical, luminescence, confirmation (AID 1512); type: functional
[13] = biological target: Glyceraldehyde-3-phosphate dehydrogenase (Homo sapiens, UniProt P04406)
[14] = biological target: Type-1 angiotensin II receptor (Homo sapiens, UniProt P30556); assay: agonist activity at AGTR1 – cell-based, uHTS hits, selectivity assay for APJ receptor agonist project, dose response (AID 488865); type: functional;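 further: beta-arrestin recruitment to AT1 measured by enzyme fragment complementation luminescence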
[15] = alpha-synuclein stem-loop luciferase translation blockers – H4 neuroglioma cells, luminescence, confirmation (AID 1988); type: functional, cell-based
[16] = luciferase reporter signal suppression in cells – H4 neuroglioma cells, luminescence, dose response (AID 1990); type: functional, cell-based
[17] = Luminescence Cell-Based Dose Response HTS to Identify Inhibitors of 5'UTR Stem-Loop Driven Prion Protein mRNA Translation in H4 Neuroglioblastoma Cells. [Related pubchem assays: 1827 (Project Summary), 1813 (Primary HTS)]; type: functional
Coagulation factor XII = biological target: T6, Coagulation factor XII (Homo sapiens, UniProt P00748); assay: Factor XIIa Dose Response Confirmation from Single Well HTS. [Related pubchem assays (depositor defined):AID701]; type: functional
T6 sequence (P00748 whole entry): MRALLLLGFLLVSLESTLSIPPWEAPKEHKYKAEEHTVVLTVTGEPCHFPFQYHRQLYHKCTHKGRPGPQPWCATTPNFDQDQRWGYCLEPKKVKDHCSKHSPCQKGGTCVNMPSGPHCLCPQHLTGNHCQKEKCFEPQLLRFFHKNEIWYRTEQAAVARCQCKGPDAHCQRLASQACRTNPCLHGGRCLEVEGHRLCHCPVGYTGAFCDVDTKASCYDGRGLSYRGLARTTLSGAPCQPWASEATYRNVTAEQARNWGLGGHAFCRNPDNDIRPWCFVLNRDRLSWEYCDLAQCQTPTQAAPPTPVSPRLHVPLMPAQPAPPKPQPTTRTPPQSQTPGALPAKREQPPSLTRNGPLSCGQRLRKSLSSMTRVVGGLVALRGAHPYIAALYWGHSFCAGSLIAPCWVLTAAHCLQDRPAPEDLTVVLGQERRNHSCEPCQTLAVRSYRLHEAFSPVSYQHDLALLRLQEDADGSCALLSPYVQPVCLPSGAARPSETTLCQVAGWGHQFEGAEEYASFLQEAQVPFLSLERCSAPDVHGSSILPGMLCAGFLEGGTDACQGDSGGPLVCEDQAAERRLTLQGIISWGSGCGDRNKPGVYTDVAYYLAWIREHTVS

T-cell = assay: loss of vesicle association with mouse CD8+ T cells – mouse 2C CD8+ T cells, flow cytometry, dose response (AID 485284); type: functional
[18] = biological target: T7, Kappa-type opioid receptor (Homo sapiens, UniProt P41145); assay: SAR analysis of Antagonists of the Kappa Opioid Receptor (KOR) using an Image-Based Assay - Set 4. [Related pubchem assays (depositor defined):AID1777, AID1785]; type: functional
Mu-type opioid receptor = Mu-type opioid receptor (Homo sapiens, UniProt P35372); assay: SAR Analysis of Antagonists of the MOR Receptor using an Image-Based Assay - Set 3. [Related pubchem assays (depositor defined):AID1777, AID1785, AID1786, AID1966, AID2133, AID2136, AID2284, AID2285, AID2420]; type: functional
[19] = biological target: T7, Kappa-type opioid receptor; assay: SAR analysis of small molecule antagonists of the kappa opioid receptor via a luminescent beta-arrestin assay - Set 3. [Related pubchem assays (depositor defined):AID1777, AID1778, AID1785, AID1786, AID1966, AID2133, AID2136, AID2285, AID2495]; type: functional
[20] = biological target: Delta-type opioid receptor (Homo sapiens, UniProt P41143); assay: SAR Analysis of Antagonists of the DOR Receptor using an Image-Based Assay - Set 3. [Related pubchem assays (depositor defined):AID1777, AID1785]; type: functional;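 further: U2OS cells expressing DOR1 and beta-arrestin GFP stimulated with 100 nM SNC80; imaging of GFP-tagged beta-arrestin moving into spots after receptor activation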
Hexokinase = Hexokinase (Trypanosoma brucei, UniProt Q38C41); assay: Confirmation assay for inhibitors of Trypanosoma brucei hexokinase 1-Analogue-first series. [Related pubchem assays (depositor defined):AID1430, AID1632, AID2516, AID2560, AID2579, AID2600, AID449725, AID492951]; type: functional
Hexokinase, sequence (Q38C41 whole entry): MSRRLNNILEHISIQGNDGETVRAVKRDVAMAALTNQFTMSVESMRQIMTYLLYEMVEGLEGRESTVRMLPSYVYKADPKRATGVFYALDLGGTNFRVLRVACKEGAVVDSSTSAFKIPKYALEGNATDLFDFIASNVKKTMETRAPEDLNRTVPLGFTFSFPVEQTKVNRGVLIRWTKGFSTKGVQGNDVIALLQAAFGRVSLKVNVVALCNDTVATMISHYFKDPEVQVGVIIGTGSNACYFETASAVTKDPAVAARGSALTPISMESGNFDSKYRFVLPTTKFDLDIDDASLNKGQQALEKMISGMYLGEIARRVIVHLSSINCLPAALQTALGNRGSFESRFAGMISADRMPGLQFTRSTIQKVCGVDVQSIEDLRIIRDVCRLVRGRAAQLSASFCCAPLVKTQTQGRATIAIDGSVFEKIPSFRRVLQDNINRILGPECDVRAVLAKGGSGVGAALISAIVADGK

T7 sequence (P41145 whole entry): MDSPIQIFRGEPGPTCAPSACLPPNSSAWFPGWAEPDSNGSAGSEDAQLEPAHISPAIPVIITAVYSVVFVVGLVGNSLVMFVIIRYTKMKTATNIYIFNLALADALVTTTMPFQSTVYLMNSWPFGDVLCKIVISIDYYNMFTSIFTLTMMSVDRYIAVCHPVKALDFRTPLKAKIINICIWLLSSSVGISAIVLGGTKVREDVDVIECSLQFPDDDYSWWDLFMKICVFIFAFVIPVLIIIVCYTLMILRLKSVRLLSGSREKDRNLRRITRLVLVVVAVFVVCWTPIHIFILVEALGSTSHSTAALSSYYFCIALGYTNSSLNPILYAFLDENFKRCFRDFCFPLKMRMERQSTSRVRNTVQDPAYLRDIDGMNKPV
T2 sequence (P98170 whole entry): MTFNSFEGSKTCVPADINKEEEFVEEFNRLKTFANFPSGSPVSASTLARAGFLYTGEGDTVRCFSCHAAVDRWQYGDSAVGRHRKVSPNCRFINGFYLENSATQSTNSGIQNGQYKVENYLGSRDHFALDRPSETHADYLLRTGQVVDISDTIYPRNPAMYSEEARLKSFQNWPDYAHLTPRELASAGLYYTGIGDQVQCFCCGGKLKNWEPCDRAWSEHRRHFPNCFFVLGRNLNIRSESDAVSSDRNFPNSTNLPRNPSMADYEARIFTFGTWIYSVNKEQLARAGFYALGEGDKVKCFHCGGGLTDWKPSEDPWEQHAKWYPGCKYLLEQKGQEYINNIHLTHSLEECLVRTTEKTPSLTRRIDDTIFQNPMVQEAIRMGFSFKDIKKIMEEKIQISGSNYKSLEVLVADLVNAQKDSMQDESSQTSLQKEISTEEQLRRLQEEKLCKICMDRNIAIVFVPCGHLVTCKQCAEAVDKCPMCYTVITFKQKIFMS
Mu-type opioid receptor, sequence (P35372 whole entry): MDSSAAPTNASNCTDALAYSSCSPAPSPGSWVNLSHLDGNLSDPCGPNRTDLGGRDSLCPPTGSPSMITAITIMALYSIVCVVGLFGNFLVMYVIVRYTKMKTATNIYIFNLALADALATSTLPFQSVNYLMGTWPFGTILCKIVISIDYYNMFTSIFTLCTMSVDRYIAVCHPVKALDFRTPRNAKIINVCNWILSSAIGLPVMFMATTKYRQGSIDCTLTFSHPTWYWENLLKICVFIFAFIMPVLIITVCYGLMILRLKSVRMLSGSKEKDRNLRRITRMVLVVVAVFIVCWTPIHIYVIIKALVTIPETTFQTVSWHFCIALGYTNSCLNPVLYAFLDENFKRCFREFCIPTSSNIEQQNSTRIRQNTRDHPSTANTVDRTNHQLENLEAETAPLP
Procathepsin L, sequence (P07711 whole entry): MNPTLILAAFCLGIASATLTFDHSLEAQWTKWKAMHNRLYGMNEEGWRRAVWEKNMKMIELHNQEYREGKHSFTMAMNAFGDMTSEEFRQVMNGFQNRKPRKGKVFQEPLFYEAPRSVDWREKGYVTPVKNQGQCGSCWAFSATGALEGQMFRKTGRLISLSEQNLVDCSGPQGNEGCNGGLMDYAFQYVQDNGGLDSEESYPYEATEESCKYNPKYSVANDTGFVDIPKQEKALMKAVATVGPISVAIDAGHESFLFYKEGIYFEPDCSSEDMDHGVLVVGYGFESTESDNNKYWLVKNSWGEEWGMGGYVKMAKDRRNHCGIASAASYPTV
Type-1 angiotensin II receptor, sequence (P30556 whole entry, the tested form may be a part): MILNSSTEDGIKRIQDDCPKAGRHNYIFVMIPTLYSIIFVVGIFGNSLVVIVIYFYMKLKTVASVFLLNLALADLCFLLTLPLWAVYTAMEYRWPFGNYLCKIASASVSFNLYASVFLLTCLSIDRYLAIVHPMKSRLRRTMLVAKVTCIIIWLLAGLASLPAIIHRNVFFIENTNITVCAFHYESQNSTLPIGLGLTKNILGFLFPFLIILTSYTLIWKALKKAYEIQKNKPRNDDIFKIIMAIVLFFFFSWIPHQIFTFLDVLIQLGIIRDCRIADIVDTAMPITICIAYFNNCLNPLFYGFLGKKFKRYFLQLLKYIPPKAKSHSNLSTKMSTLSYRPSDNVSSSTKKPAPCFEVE
Delta-type opioid receptor, sequence (P41143 whole entry): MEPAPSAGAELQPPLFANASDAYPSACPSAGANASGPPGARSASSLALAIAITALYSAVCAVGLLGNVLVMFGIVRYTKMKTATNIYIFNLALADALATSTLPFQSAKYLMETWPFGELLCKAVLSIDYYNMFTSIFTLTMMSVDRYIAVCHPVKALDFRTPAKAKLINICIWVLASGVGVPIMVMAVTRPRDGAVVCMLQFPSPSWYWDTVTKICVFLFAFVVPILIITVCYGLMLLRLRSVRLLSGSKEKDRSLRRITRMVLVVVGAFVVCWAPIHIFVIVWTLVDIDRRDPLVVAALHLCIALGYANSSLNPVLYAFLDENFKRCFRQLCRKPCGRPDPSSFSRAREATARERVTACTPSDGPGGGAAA
Alkaline phosphatase, placental type, sequence (P05187 whole entry): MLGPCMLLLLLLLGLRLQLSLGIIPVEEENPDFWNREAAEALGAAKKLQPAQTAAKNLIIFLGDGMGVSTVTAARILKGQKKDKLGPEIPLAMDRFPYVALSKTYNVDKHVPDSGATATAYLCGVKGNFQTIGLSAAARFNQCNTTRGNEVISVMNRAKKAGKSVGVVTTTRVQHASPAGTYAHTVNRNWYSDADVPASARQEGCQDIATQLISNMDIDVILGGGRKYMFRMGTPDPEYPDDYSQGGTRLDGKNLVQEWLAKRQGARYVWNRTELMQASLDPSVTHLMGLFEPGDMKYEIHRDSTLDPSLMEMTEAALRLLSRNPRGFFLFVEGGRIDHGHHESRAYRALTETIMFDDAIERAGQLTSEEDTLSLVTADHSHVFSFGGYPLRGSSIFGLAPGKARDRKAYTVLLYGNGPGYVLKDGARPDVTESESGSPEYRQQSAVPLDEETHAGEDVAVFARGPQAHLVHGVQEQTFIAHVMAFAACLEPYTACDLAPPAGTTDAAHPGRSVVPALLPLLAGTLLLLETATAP
FAD-linked sulfhydryl oxidase ALR, sequence (P55789 whole entry): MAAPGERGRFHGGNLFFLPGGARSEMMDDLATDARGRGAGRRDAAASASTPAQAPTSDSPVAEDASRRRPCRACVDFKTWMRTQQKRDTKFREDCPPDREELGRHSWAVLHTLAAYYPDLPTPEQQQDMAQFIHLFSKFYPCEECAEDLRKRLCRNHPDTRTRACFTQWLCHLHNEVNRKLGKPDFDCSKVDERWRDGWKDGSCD
Glyceraldehyde-3-phosphate dehydrogenase, sequence (P04406 whole entry, the tested form may be a part): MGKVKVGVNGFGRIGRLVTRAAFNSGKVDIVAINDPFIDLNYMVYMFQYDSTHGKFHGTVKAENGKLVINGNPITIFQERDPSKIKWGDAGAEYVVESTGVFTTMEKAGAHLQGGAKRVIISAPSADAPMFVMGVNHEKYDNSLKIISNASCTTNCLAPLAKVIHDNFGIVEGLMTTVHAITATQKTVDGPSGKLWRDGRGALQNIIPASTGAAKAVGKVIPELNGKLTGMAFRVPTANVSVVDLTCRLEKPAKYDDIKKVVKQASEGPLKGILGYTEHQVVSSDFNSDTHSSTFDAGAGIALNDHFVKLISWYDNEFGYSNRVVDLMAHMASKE
Phosphomannomutase 2, sequence (O15305 whole entry): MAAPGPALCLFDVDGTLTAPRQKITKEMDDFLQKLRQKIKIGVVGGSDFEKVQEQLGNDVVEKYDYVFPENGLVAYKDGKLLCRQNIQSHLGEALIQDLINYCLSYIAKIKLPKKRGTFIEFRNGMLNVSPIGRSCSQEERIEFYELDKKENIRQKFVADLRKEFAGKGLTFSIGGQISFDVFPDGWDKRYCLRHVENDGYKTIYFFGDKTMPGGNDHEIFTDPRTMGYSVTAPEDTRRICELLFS
Aspartyl aminopeptidase, sequence (Q8I2J3 whole entry): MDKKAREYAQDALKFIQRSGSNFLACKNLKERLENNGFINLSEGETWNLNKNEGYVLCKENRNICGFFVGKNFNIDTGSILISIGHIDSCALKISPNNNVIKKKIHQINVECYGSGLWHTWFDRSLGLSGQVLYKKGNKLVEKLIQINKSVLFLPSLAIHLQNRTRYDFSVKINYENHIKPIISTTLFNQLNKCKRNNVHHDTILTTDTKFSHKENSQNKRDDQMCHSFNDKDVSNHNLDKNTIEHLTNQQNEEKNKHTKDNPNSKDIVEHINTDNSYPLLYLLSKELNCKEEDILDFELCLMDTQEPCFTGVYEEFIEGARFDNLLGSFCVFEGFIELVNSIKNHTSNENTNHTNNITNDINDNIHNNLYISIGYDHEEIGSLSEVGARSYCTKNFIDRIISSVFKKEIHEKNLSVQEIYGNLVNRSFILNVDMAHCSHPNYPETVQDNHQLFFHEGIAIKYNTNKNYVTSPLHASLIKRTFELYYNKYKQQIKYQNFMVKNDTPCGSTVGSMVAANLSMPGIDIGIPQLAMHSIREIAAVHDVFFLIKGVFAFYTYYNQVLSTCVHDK

Cc1cc2oc(=O)cc(C)c2cc1NC(=O)CCC(=O)O
AC50 [1]: > 350 µM (inactive) | IC50 [2]: > 100 µM (inactive) | AC50 [3]: > 350 µM (inactive) | AC50 [4]: > 350 µM (inactive) | IC50 [5]: > 100 µM (not active)

Sc1n[nH]c(-c2cccc(Cl)c2)n1
IC50 (Procathepsin L): > 59.6 µM (not active) | IC50 (Phosphomannomutase 2): > 100 µM (inactive) | EC50 [6]: > 79.4 µM (not active) | EC50 [7]: > 79.4 µM (not active) | AC50 [8]: 97 nM (active) | IC50 (Leucine aminopeptidase): 3.56 µM (active) | IC50 (Aspartyl aminopeptidase): 15.6 µM (not active) | EC50 [9]: > 79.4 µM (inactive) | IC50 [10]: 1.94 µM (active)

CSc1nnc(NC(=O)c2cc(F)c(F)c(F)c2F)[nH]1
IC50 [11]: > 100 µM (inactive) | IC50 [12]: > 100 µM (inactive) | IC50 [13]: > 100 µM (not active)

C=CCn1c(SCC(=O)N2CCN(c3ccccc3)CC2)nc2c3ccccc3nc-2c1O
EC50 [14]: > 100 µM (inactive) | EC50 [15]: 8.55 µM (active) | EC50 [16]: > 120 µM (not active) | EC50 [17]: 14.2 µM (active)

O=C(Oc1ccc2c3c(c(=O)oc2c1)CCC3)c1ccco1
IC50 (Coagulation factor XII): 6.22 µM (active)

COc1ccc(S(=O)(=O)N2CCCCC2)cc1NC(=O)c1cnc(C)cn1
EC50 (T-cell): 558 nM (active)

Cc1ccnc2c1n1cccc1c(=O)n2CC(=O)NCCCN1CCN(c2ccccc2)CC1
IC50 [18]: 2.56 µM (active) | IC50 (Mu-type opioid receptor): 22.5 µM (inactive) | IC50 [19]: 4.95 µM (active) | IC50 [20]: > 32 µM (inactive)

O=C(Nc1cc(Cl)ccc1C(=O)O)c1ccsc1
IC50 (Hexokinase): > 25 µM (inactive)
